From PMC11479992, “Branched oncolytic peptides target HSPGs, inhibit metastasis, and trigger the release of molecular determinants of immunogenic cell death in pancreatic cancer” (Frontiers in Molecular Biosciences, 2024)
Structures can show the parent of a compound that is named as a salt. Bridges are numbered along the chain shown (N, C = ends). Roman numbers before positions name the chains, in order. Where no end group is shown, it is not given here.

Assays:
[1] = tested on: IFN-β secretion by PANC-1 cells; test: IFN-β release ELISA; assay type: cell-based, human; conditions: 300 to 2 μM, 24 h, n = 3
Procedure: PANC-1 cells were seeded 5 × 10^4 cells/well in a 96-well plate and incubated overnight at 37°C in a 5% CO2 atmosphere. Cells were then treated with BOP7, BOP9, daunorubicin hydrochloride (Sigma Aldrich) and irinotecan hydrochloride (Sigma Aldrich) at different concentrations (from 300 to 2 μM) and left for 24 h at 37°C. At the same time, a DuoSet ELISA plate (R&D Systems Inc., Minneapolis, MN, United States) for the detection of IFN-β was prepared following the manufacturer’s instructions. The plate was sensitized with 100 μL/well of capture antibody for 24 h. PANC-1 supernatants were collected and centrifuged for 5 min at 1,200 rpm, added to the DuoSet plate at 100 μL/well and incubated for 2 h at room temperature. The detection antibody conjugated with streptavidin-peroxidase was then added. After adding the substrate solution, the plate was read at 450 nm using a microplate spectrophotometer (Multiskan, Thermo Scientific). Data was analysed using GraphPad Prism version 9.5.0 software.

Mia PaCa-2 cells = assay type: cell-based, human; conditions: 24 h
Procedure: (§1) PANC-1, PANC-1-luc2, Mia PaCa-2 or CHO-K1 cells were seeded 5 × 10^4 cells/well in a standard 96-well plate and incubated overnight at 37°C, 5% CO2 atmosphere. Each well was treated with 200 μL BOP7 or BOP9 at different concentrations (from 100 to 0.08 μM) and incubated for 24 h. PANC-1 and Mia PacCa-2 were also tested with linear peptides L7 and L9 at concentrations ranging from 781 to 0.5 μM under the same conditions. Growth inhibition was assessed with a MMT assay (3-(4,5-dimethylthiazol-2-yl)-2,5-diphenyltetrazolium bromide) (Sigma Aldrich). Optical density was measured at 595 and 650 nm with a microplate spectrophotometer (Multiskan, Thermo Scientific). Experiments were repeated twice in quintuplicate. Cell viability was measured by comparing values of treated and untreated cells. IC50 values were calculated by non-linear regression analysis using GraphPad Prism version 9.5.0 software.

PANC-1 cells = assay type: cell-based, human; conditions: 24 h
Procedure: as §1

CHO-K1 cells = assay type: cell-based, chinese hamster; conditions: 24 h
Procedure: as §1, with “Each well was treated with 200 μL BOP7 or BOP9 at different concentrations (from 100 to 0.08 μM) and incubated for 24 h.” left out

[2] = tested on: HMGB1 release by PANC-1 cells; test: HMGB1 release ELISA; assay type: cell-based, human; conditions: 300 to 2 μM, 24 h, ELISA of supernatants, n = 3
Procedure: PANC-1 cells were seeded 5 × 10^4 cells/well in a standard 96-well plate and incubated overnight at 37°C in a 5% CO2 atmosphere. Then they were treated with BOP7, BOP9, daunorubicin hydrochloride (Sigma Aldrich) and irinotecan hydrochloride (Sigma Aldrich) at different concentrations (from 300 to 2 μM in 200 μL) and left for 24 h at 37°C. The following day, release of HMGB1 in the culture medium was assessed with an HMGB1 ELISA kit (IBL International, Hamburg, Germany) in the PANC-1 supernatants, according to the manufacturer’s instructions. Optical density was measured at 450 nm with a microplate spectrophotometer (Multiskan, Thermo Scientific). Data was analysed using GraphPad Prism version 9.5.0 software.

[3] = tested on: ATP release by PANC-1 cells; test: Extracellular ATP bioluminescence assay; assay type: cell-based, human; conditions: 50 μM
Procedure: PANC-1 cells were seeded (10 × 10^3 cells/well) in an opaque-walled 96-well plate and incubated overnight at 37°C in a 5% CO2 atmosphere. The following day, each well was treated with 150 μL BOP7, BOP9, daunorubicin hydrochloride (Sigma Aldrich) or irinotecan hydrochloride (cod. PHR2717, Sigma Aldrich) at different concentrations (from 50 to 2 μM). At the same time, each well was incubated with 50 μL RealTime-Glo Extracellular ATP Reagent Substrate (Promega). The plate was incubated at 37° and bioluminescence was measured at 560 nm at different time intervals with a VICTOR NIVO 5S luminometer (Perkin Elmer, Waltham, MA, United States). Data was analysed using GraphPad Prism version 9.5.0 software.

CCc1c2c(nc3ccc(OC(=O)N4CCC(N5CCCCC5)CC4)cc13)-c1cc3c(c(=O)n1C2)COC(=O)[C@]3(O)CC [irinotecan, irinotecan hydrochloride]
IFN-β release [1]: did not result in a statistically significant release

I: KKKLKFKKLQKK-NH2 / II: KKKLKFKKLQK / III: KKKLKFKKLQ / IV: KKKLKFKKLQ (amide I:11-IV:C, I:12-II:C, II:11-III:C) [BOP9]
IC50 (Mia PaCa-2 cells): 17.8 µM | IC50 (PANC-1 cells): 8.3 µM | IC50 (CHO-K1 cells): 16000 µM

COc1cccc2c1C(=O)c1c(O)c3c(c(O)c1C2=O)C[C@@](O)(C(C)=O)C[C@@H]3O[C@H]1C[C@H](N)[C@H](O)[C@H](C)O1 [daunorubicin, daunorubicin hydrochloride]
HMGB1 release [2]: most effective inducer even at the lowest concentrations | IFN-β release [1]: did not result in a statistically significant release | time after which ATP release returned to baseline [3]: 6 h | time of peak of ATP release [3]: 3 h | ATP release ([3]; bioluminescence over time): most effective agent

I: LLKKKFKKLQKK-NH2 / II: LLKKKFKKLQK / III: LLKKKFKKLQ / IV: LLKKKFKKLQ (amide I:11-IV:C, I:12-II:C, II:11-III:C) [BOP7]
IC50 (Mia PaCa-2 cells): 27.3 µM | IC50 (PANC-1 cells): 1.67 µM | IC50 (CHO-K1 cells): 5000 µM
